# Source: ChEMBL document CHEMBL4680194, “Synthesis and biological evaluation of 1,2,4-triazole derivatives as potential neuroprotectant against ischemic brain injury” (Eur J Med Chem, 2020)
# Active and inactive are the calls of the source. The calls are words filed in the database; no cut-off is given here.
# Columns and labels:
# [1] = Clearance in Sprague-Dawley rat at 20 mg/kg, po measured upto 24 hrs by LC-MS/MS analysis; format: ADME, organism-based; conditions: in vivo
# [2] = molecular target: T1, Nuclear factor erythroid 2-related factor 2 (Rattus norvegicus) (UniProt O54968); experiment: Induction of Nrf2 nuclear translocation in rat PC-12 cells assessed as SNP-induced SOD level at 5 uM incubated for 1 hr followed by SNP stimulation and measured after 24 hrs (reference value: 23.74 +/- 2.02 U/mg); format: cell-based; conditions: time 25.0 hrs
# T1 sequence (whole entry): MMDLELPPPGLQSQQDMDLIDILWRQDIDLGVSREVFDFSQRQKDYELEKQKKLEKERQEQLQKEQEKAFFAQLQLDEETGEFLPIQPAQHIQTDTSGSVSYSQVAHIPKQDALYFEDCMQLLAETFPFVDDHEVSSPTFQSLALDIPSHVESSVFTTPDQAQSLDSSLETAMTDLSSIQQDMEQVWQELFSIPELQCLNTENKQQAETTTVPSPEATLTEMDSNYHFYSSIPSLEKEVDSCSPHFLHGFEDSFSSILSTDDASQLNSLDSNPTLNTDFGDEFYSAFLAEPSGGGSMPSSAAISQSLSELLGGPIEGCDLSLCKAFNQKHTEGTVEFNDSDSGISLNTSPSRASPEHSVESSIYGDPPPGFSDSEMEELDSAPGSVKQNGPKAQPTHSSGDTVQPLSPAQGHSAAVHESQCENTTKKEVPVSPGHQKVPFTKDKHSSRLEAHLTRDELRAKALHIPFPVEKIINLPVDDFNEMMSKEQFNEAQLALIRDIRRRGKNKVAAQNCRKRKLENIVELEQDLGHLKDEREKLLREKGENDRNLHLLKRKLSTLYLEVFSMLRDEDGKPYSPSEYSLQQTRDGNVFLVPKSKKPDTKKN
# PC-12 [3] = experiment: Inhibition of SNP-induced apoptosis in rat PC-12 cells assessed as effect on cell morphology incubated for 1 hr followed by SNP stimulation and measured after 24 hrs by Hoechst 33258 staining based fluorescence microscopy; format: functional; conditions: dose 2.5-10 µM, time 25.0 hrs
# [4] = molecular target: T1, Nuclear factor erythroid 2-related factor 2 (Rattus norvegicus); experiment: Induction of Nrf2 nuclear translocation in rat PC-12 cells assessed as H2O2-induced SOD level at 5 uM incubated for 1 hr followed by H2O2 stimulation and measured after 5 hrs (reference value: 29.69 +/- 1.65 U/mg); format: cell-based; conditions: time 6.0 hrs
# PC-12 [5] = experiment: Cytoprotective activity against SNP-induced cell death in rat PC-12 cells assessed as increase in cell viability incubated for 1 hr followed by SNP stimulation and measured after 24 hrs by LDH assay; format: functional, cell-based; conditions: time 25.0 hrs
# PC-12 [6] = experiment: Inhibition of H2O2-induced apoptosis in rat PC-12 cells assessed as effect on cell morphology incubated for 1 hr followed by H2O2 stimulation and measured after 5 hrs by Hoechst 33258 staining based fluorescence microscopy; format: functional; conditions: dose 2.5-10 µM, time 6.0 hrs
# [7] = Clearance in Sprague-Dawley rat at 2 mg/kg, iv measured upto 24 hrs by LC-MS/MS analysis; format: ADME, organism-based; conditions: in vivo
# [8] = Toxicity in […] assessed as behavior changes at 400 mg/kg, ip observed after 12 hrs; format: organism-based; conditions: in vivo
# [9] = molecular target: T1, Nuclear factor erythroid 2-related factor 2 (Rattus norvegicus); experiment: Induction of Nrf2 nuclear translocation in rat PC-12 cells assessed as SNP-induced GSH-px level at 5 uM incubated for 1 hr followed by SNP stimulation and measured after 24 hrs (reference value: 37.70 +/- 2.88 mU/mg); format: cell-based; conditions: time 25.0 hrs
# [10] = molecular target: T1, Nuclear factor erythroid 2-related factor 2 (Rattus norvegicus); experiment: Induction of Nrf2 nuclear translocation in rat PC-12 cells assessed as H2O2-induced SOD level incubated for 1 hr followed by H2O2 stimulation and measured after 5 hrs; format: cell-based; conditions: dose 2.5-10 µM, time 6.0 hrs
# [11] = molecular target: T1, Nuclear factor erythroid 2-related factor 2 (Rattus norvegicus); experiment: Induction of Nrf2 nuclear translocation in rat PC-12 cells assessed as H2O2-induced GSH-px level at 10 uM incubated for 1 hr followed by H2O2 stimulation and measured after 5 hrs (reference value: 45.92 +/- 3.64 mU/mg); format: cell-based; conditions: time 6.0 hrs
# PC-12 [12] = experiment: Inhibition of SNP-induced apoptosis in rat PC-12 cells assessed as reduction in condensed nuclei incubated for 1 hr followed by SNP stimulation and measured after 24 hrs by Hoechst 33258 staining based fluorescence microscopy; format: functional, cell-based; conditions: dose 2.5-10 µM, time 25.0 hrs
# [13] = Toxicity in […] assessed as body weight at 400 mg/kg, ip observed after immediately (reference value: 24.4 to 28.4 g); format: organism-based; conditions: in vivo
# PC-12 [14] = experiment: Cytoprotective activity against H2O2-induced cell death in rat PC-12 cells assessed as increase in cell viability at 10 uM incubated for 1 hr followed by H2O2 stimulation and measured after 5 hrs by MTT assay; format: functional; conditions: time 6 hrs
# [15] = MRT in Sprague-Dawley rat at 2 mg/kg, iv measured upto 24 hrs by LC-MS/MS analysis; format: ADME, organism-based; conditions: in vivo
# [16] = molecular target: T1, Nuclear factor erythroid 2-related factor 2 (Rattus norvegicus); experiment: Induction of Nrf2 nuclear translocation in rat PC-12 cells assessed as SNP-induced GSH-px level at 10 uM incubated for 1 hr followed by SNP stimulation and measured after 24 hrs (reference value: 37.70 +/- 2.88 mU/mg); format: cell-based; conditions: time 25.0 hrs
# [17] = Oral bioavailability in Sprague-Dawley rat at 20 mg/kg measured upto 24 hrs by LC-MS/MS analysis; format: ADME, organism-based; conditions: in vivo
# [18] = molecular target: T1, Nuclear factor erythroid 2-related factor 2 (Rattus norvegicus); experiment: Induction of Nrf2 nuclear translocation in rat PC-12 cells assessed as SNP-induced GSH level at 5 uM incubated for 1 hr followed by SNP stimulation and measured after 24 hrs (reference value: 75.78 +/- 1.74 nM/mg); format: cell-based; conditions: time 25.0 hrs
# [19] = molecular target: T1, Nuclear factor erythroid 2-related factor 2 (Rattus norvegicus); experiment: Induction of Nrf2 nuclear translocation in rat PC-12 cells assessed as SNP-induced GSH level incubated for 1 hr followed by SNP stimulation and measured after 24 hrs; format: cell-based; conditions: dose 2.5-10 µM, time 25.0 hrs
# [20] = MRT in Sprague-Dawley rat at 20 mg/kg, po measured upto 24 hrs by LC-MS/MS analysis; format: ADME, organism-based; conditions: in vivo
# Rattus norvegicus = experiment: Neuroprotective activity in Sprague-Dawley rat model of middle cerebral artery occlusion-induced ischemic injury assessed as decrease in IL-1beta level at 3 to 30 mg/kg, ip administered TID and measured after 24 hrs by ELISA; format: functional, organism-based; conditions: dose 3-30 mg/kg
smiles,measurement,setting,value
COc1ccc(-c2nc(-c3ccccc3O)n(-c3ccc(S(N)(=O)=O)cc3)n2)c(O)c1,CL/F,[1],23.3 mL/min/kg
same,Activity,[2],34.9 U/mg
same,inhibition,PC-12 [3],Dose-dependent effect
same,Activity,[4],38.9 U/mg
same,Activity,PC-12 [5],Dose-dependent effect
same,inhibition,PC-12 [6],Dose-dependent effect
same,clearance,[7],15 mL/min/kg
same,Activity,[8],Non-Toxic
same,Activity,[9],44.4 mU/mg
same,Activity,[10],Dose-dependent effect
same,Activity,[11],77.9 mU/mg
same,inhibition,PC-12 [12],Dose-dependent effect
same,Activity,[13],24.6 g
same,Activity,PC-12 [14],30%
same,MRT,[15],2.37 h
same,Activity,[16],52.8 mU/mg
same,bioavailability,[17],60.8%
same,Activity,[18],86.7 nM/mg
same,Activity,[19],Dose-dependent effect
same,MRT,[20],6.32 h
same,Activity,Rattus norvegicus,Active
